Experimental data from US4563472A, “Iodoallyl and iodopropargyl substituted tetrazoles and anti-microbial compositions thereof” (Meiji Seika Kaisha, Ltd., priority 1982, dated 1986).
Values after ≈ are worked out from the molar mass of the structure shown. Read-outs that look alike come from different tables or passages of the source.

What was measured:
Format in all cases: cell-based
Alternaria kikuchiana = experiment: Antibacterial and Antifungal Activities (in Agricultural Field), MIC; conditions: read-out: Minimal Inhibitory Conc. (MIC)
Mucor spinescens IAM Mu3 = experiment: Antifungal Activity (in Industrial Field), MIC; conditions: IAMMU3, read-out: Minimal Inhibitory Conc. (MIC)
[1] = system: Corynebacterium michiganense; experiment: Antibacterial and Antifungal Activities (in Agricultural Field), MIC; conditions: Clavibacter michiganensis; Corynebacterium michiganense; read-out: Minimal Inhibitory Conc. (MIC)
[2] = system: Pseudomonas syringae pv. tabaci; experiment: as above; conditions: read-out: Minimal Inhibitory Conc. (MIC)
[3] = system: Staphylococcus aureus 209P JC-1; experiment: Antibacterial Activity (in medicinal field), MIC; conditions: read-out: Minimal Inhibitory Conc. (MIC)
[4] = system: Fusarium oxysporum f. lycopersici; experiment: Antibacterial and Antifungal Activities (in Agricultural Field), MIC; conditions: read-out: Minimal Inhibitory Conc. (MIC)
Diaporithe citri = experiment: as above; conditions: read-out: Minimal Inhibitory Conc. (MIC)
[5] = system: Pseudomonas cepacia M-0527; experiment: Antibacterial Activity (in medicinal field), MIC; conditions: Burkholderia cepacia, M0527, read-out: Minimal Inhibitory Conc. (MIC)
[6] = system: Escherichia coli NIHJ JC-2; experiment: Antibacterial Activity (in medicinal field), MIC; conditions: NIHJJC2, read-out: Minimal Inhibitory Conc. (MIC)
[7] = system: Shigella sonnei EW 33 Type I; experiment: Antibacterial Activity (in medicinal field), MIC; conditions: EW33TYPEI, read-out: Minimal Inhibitory Conc. (MIC)
Gibberella fujikuroi = experiment: Antibacterial and Antifungal Activities (in Agricultural Field), MIC; conditions: Fusarium fujikuroi, read-out: Minimal Inhibitory Conc. (MIC)
[8] = system: Trichophyton interdigitale; experiment: Antifungal Activity (in Medicinal Field), MIC; conditions: read-out: Minimal Inhibitory Conc. (MIC)
[9] = system: Aspergillus fumigatus Saito; experiment: Antifungal Activity (in Medicinal Field), MIC; conditions: read-out: Minimal Inhibitory Conc. (MIC)
Pellicularia filamentosa = experiment: Antibacterial and Antifungal Activities (in Agricultural Field), MIC; conditions: read-out: Minimal Inhibitory Conc. (MIC)
Candida alubicans GA-24 = experiment: Antifungal Activity (in Medicinal Field), MIC; conditions: GA24; Candida alubicans GA-24; read-out: Minimal Inhibitory Conc. (MIC)
[10] = system: Chaetomium globosum ATCC 6205; experiment: Antifungal Activity (in Industrial Field), MIC; conditions: ATCC6205, read-out: Minimal Inhibitory Conc. (MIC)
[11] = system: Cryptococcus neoformans Cr-1; experiment: Antifungal Activity (in Medicinal Field), MIC; conditions: CR1, read-out: Minimal Inhibitory Conc. (MIC)
Cochliobolus miyabeanus = experiment: Antibacterial and Antifungal Activities (in Agricultural Field), MIC; conditions: Bipolaris oryzae, read-out: Minimal Inhibitory Conc. (MIC)
[12] = system: Aspergillus fumigatus IAM 2621; experiment: Antifungal Activity (in Industrial Field), MIC; conditions: IAM2621, read-out: Minimal Inhibitory Conc. (MIC)
[13] = system: Trichophyton metagrophytes 530324; experiment: Antifungal Activity (in Medicinal Field), MIC; conditions: Trichophyton metagrophytes 530324; read-out: Minimal Inhibitory Conc. (MIC)
[14] = system: Cladosporium herbarum IAM F-517; experiment: Antifungal Activity (in Industrial Field), MIC; conditions: IAMF517, read-out: Minimal Inhibitory Conc. (MIC)
[15] = system: Serratia marcescens MB-3848; experiment: Antibacterial Activity (in medicinal field), MIC; conditions: MB3848, read-out: Minimal Inhibitory Conc. (MIC)
[16] = system: Staphylococcus epidermidis ATCC 14990; experiment: Antibacterial Activity (in medicinal field), MIC; conditions: ATCC14990; Staphylococcus epidermidis ATCC 14990; read-out: Minimal Inhibitory Conc. (MIC)
[17] = system: Aspergillus flavus ATCC 6275; experiment: Antifungal Activity (in Industrial Field), MIC; conditions: ATCC6275, read-out: Minimal Inhibitory Conc. (MIC)
[18] = system: Pullularia pullulans IAM F-24; experiment: Antifungal Activity (in Industrial Field), MIC; conditions: IAMF24; Pullularia pullulans IAM F-24; read-out: Minimal Inhibitory Conc. (MIC)
[19] = system: Colletotrichum lagenarium; experiment: Antibacterial and Antifungal Activities (in Agricultural Field), MIC; conditions: Colletotrichum orbiculare, read-out: Minimal Inhibitory Conc. (MIC)
[20] = system: Trichoderma T-1 ATCC 9645; experiment: Antifungal Activity (in Industrial Field), MIC; conditions: ATCC9645, read-out: Minimal Inhibitory Conc. (MIC)
Botrytis cinerea = experiment: Antibacterial and Antifungal Activities (in Agricultural Field), MIC; conditions: read-out: Minimal Inhibitory Conc. (MIC)
Proteus vulgaris OX-19 = experiment: Antibacterial Activity (in medicinal field), MIC; conditions: OX19, read-out: Minimal Inhibitory Conc. (MIC)
Phricularia oryzae = experiment: Antibacterial and Antifungal Activities (in Agricultural Field), MIC; conditions: read-out: Minimal Inhibitory Conc. (MIC)
[21] = system: Klebsiella pneumoniae PCI-602; experiment: Antibacterial Activity (in medicinal field), MIC; conditions: PCI602, read-out: Minimal Inhibitory Conc. (MIC)
Glomerella cingulata = experiment: Antibacterial and Antifungal Activities (in Agricultural Field), MIC; conditions: Colletotrichum gloeosporioides, read-out: Minimal Inhibitory Conc. (MIC)
[22] = system: Xanthomonas campestris pv. citri; experiment: as above; conditions: read-out: Minimal Inhibitory Conc. (MIC)
Erwinia carotovora = experiment: as above; conditions: Pectobacterium carotovorum, read-out: Minimal Inhibitory Conc. (MIC)
[23] = system: Aspergillus terreus PQMD 82 j; experiment: Antifungal Activity (in Industrial Field), MIC; conditions: PQMD82J, read-out: Minimal Inhibitory Conc. (MIC)
[24] = system: Penicillium luteum ATCC 9644; experiment: Antifungal Activity (in Industrial Field), MIC; conditions: Ascospirella lutea, ATCC9644, read-out: Minimal Inhibitory Conc. (MIC)
[25] = system: Bacillus anthracis No. 119; experiment: microbe, parasite or virus in culture; conditions: NO.119, read-out: Minimal Inhibitory Conc. (MIC)
Salmonella typhi O-901-W = experiment: Antibacterial Activity (in medicinal field), MIC; conditions: Salmonella enterica, read-out: Minimal Inhibitory Conc. (MIC)
[26] = system: Pseudomonas maltophilia M-0627; experiment: Antibacterial Activity (in medicinal field), MIC; conditions: Stenotrophomonas maltophilia, M0627, read-out: Minimal Inhibitory Conc. (MIC)
[27] = system: Rhizopus nigricans S.N. 32; experiment: Antifungal Activity (in Industrial Field), MIC; conditions: Rhizopus stolonifer, read-out: Minimal Inhibitory Conc. (MIC)
[28] = system: Xanthomonas campestris pv. oryzae; experiment: microbe, parasite or virus in culture; conditions: read-out: Minimal Inhibitory Conc. (MIC)
[29] = Staphylococcus aureus 209P JC-1

In the case of `IC(I)=C(I)Cn1ccnc1` [1-(2',3',3'-triiodoallyl)imidazole], the MIC (Alternaria kikuchiana) is reported as 1.56 µg/mL (≈ 3.21 µM), the MIC (Mucor spinescens IAM Mu3) is reported as 6.25 µg/mL (≈ 12.9 µM) and the MIC [1] is reported as 1.56 µg/mL (≈ 3.21 µM). For the same compound, the MIC [2] was 12.5 µg/mL (≈ 25.7 µM), the MIC [3, 29] was 12.5 µg/mL (≈ 25.7 µM) and the MIC [4] was 1.56 µg/mL (≈ 3.21 µM). The MIC (Diaporithe citri) was 0.78 µg/mL (≈ 1.61 µM), the MIC [5] was 6.25 µg/mL (≈ 12.9 µM) and the MIC [6] was 12.5 µg/mL (≈ 25.7 µM). The MIC ([7]; Shigella sonnei) was 6.5 µg/mL (≈ 13.4 µM), the MIC (Gibberella fujikuroi) was 0.78 µg/mL (≈ 1.61 µM) and the MIC [8] was 3.12 µg/mL (≈ 6.42 µM). The MIC [9] was 6.25 µg/mL (≈ 12.9 µM), the MIC (Pellicularia filamentosa) was 50 µg/mL (≈ 103 µM) and the MIC (Candida alubicans GA-24) was 1.56 µg/mL (≈ 3.21 µM). For the same compound, the MIC [10] was 1.56 µg/mL (≈ 3.21 µM), the MIC [11] was 6.25 µg/mL (≈ 12.9 µM) and the MIC (Cochliobolus miyabeanus) was 6.25 µg/mL (≈ 12.9 µM). For the same compound, the MIC [12] was 6.25 µg/mL (≈ 12.9 µM), the MIC [13] was 1.56 µg/mL (≈ 3.21 µM) and the MIC [14] was 0.39 µg/mL (≈ 0.803 µM). It also gave an MIC [15] of 12.5 µg/mL (≈ 25.7 µM), an MIC [16] of 12.5 µg/mL (≈ 25.7 µM) and an MIC [17] of 3.13 µg/mL (≈ 6.44 µM). For the same compound, the MIC [18] was 3.13 µg/mL (≈ 6.44 µM), the MIC [19] was 1.56 µg/mL (≈ 3.21 µM) and the MIC [20] was 6.25 µg/mL (≈ 12.9 µM). The MIC (Botrytis cinerea) was 1.56 µg/mL (≈ 3.21 µM), the MIC (Proteus vulgaris OX-19) was 12.5 µg/mL (≈ 25.7 µM) and the MIC (Phricularia oryzae) was 3.13 µg/mL (≈ 6.44 µM). It also gave an MIC [21] of 12.5 µg/mL (≈ 25.7 µM), an MIC (Glomerella cingulata) of 1.56 µg/mL (≈ 3.21 µM) and an MIC [22] of 25 µg/mL (≈ 51.5 µM). It also gave an MIC (Erwinia carotovora) of 12.5 µg/mL (≈ 25.7 µM), an MIC [23] of 0.78 µg/mL (≈ 1.61 µM) and an MIC [24] of 0.78 µg/mL (≈ 1.61 µM).

For `IC(I)=C(I)Cn1cnnn1` [1-(2',3',3'-triiodoallyl)tetrazole], the MIC [3, 29] was 31.3 µg/mL (≈ 64.2 µM), the MIC [5] was 0.78 µg/mL (≈ 1.6 µM) and the MIC [6] was 3.13 µg/mL (≈ 6.42 µM). The MIC ([7]; Shigella sonnei EW 33 Type I) was 3.13 µg/mL (≈ 6.42 µM), the MIC [8] was 0.39 µg/mL (≈ 0.799 µM) and the MIC [9] was 0.78 µg/mL (≈ 1.6 µM). The MIC (Candida alubicans GA-24) was 3.12 µg/mL (≈ 6.4 µM), the MIC [11] was 3.12 µg/mL (≈ 6.4 µM) and the MIC [13] was 0.39 µg/mL (≈ 0.799 µM). The MIC [15] was 3.13 µg/mL (≈ 6.42 µM), the MIC [25] was 0.78 µg/mL (≈ 1.6 µM) and the MIC (Salmonella typhi O-901-W) was 1.56 µg/mL (≈ 3.2 µM). The MIC (Proteus vulgaris OX-19) was 6.25 µg/mL (≈ 12.8 µM), the MIC [21] was 3.13 µg/mL (≈ 6.42 µM) and the MIC [26] was 0.78 µg/mL (≈ 1.6 µM).

`IC(I)=C(I)Cn1ncnn1` [2-(2',3',3'-triiodoallyl)tetrazole] gave an MIC (Alternaria kikuchiana) of 3.13 µg/mL (≈ 6.42 µM), an MIC (Mucor spinescens IAM Mu3) of 1.56 µg/mL (≈ 3.2 µM) and an MIC [1] of 12.5 µg/mL (≈ 25.6 µM). It also gave an MIC [2] greater than 100 µg/mL, an MIC ([3]; Staphylococcus aureus, 209P) of 6.25 µg/mL (≈ 12.8 µM) and an MIC [27] of 3.13 µg/mL (≈ 6.42 µM). It also gave an MIC [4] of 1.56 µg/mL (≈ 3.2 µM), an MIC (Diaporithe citri) of 0.78 µg/mL (≈ 1.6 µM) and an MIC [5] of 1.56 µg/mL (≈ 3.2 µM). The MIC [6] was 12.5 µg/mL (≈ 25.6 µM), the MIC ([7]; Shigella sonnei EW 33 Type I) was 6.25 µg/mL (≈ 12.8 µM) and the MIC (Gibberella fujikuroi) was 0.39 µg/mL (≈ 0.799 µM). It also gave an MIC [8] of 0.09 µg/mL (≈ 0.184 µM), an MIC [9] of 0.19 µg/mL (≈ 0.389 µM) and an MIC (Pellicularia filamentosa) of 50 µg/mL (≈ 102 µM). For the same compound, the MIC (Candida alubicans GA-24) was 0.19 µg/mL (≈ 0.389 µM), the MIC [10] was 12.5 µg/mL (≈ 25.6 µM) and the MIC [11] was 0.78 µg/mL (≈ 1.6 µM). The MIC (Cochliobolus miyabeanus) was 1.56 µg/mL (≈ 3.2 µM), the MIC [12] was 6.25 µg/mL (≈ 12.8 µM) and the MIC [13] was 0.09 µg/mL (≈ 0.184 µM). For the same compound, the MIC [14] was 6.25 µg/mL (≈ 12.8 µM), the MIC [15] was 6.25 µg/mL (≈ 12.8 µM) and the MIC [28] was 6.25 µg/mL (≈ 12.8 µM). It also gave an MIC [17] of 0.78 µg/mL (≈ 1.6 µM), an MIC [25] of 1.56 µg/mL (≈ 3.2 µM) and an MIC (Salmonella typhi O-901-W) of 6.25 µg/mL (≈ 12.8 µM). For the same compound, the MIC [18] was 0.76 µg/mL (≈ 1.56 µM), the MIC [19] was 0.78 µg/mL (≈ 1.6 µM) and the MIC [20] was 3.13 µg/mL (≈ 6.42 µM). For the same compound, the MIC (Botrytis cinerea) was 0.39 µg/mL (≈ 0.799 µM), the MIC (Proteus vulgaris OX-19) was 12.5 µg/mL (≈ 25.6 µM) and the MIC (Phricularia oryzae) was 3.13 µg/mL (≈ 6.42 µM). For the same compound, the MIC [21] was 12.5 µg/mL (≈ 25.6 µM), the MIC (Glomerella cingulata) was 0.39 µg/mL (≈ 0.799 µM) and the MIC [22] was 25 µg/mL (≈ 51.2 µM). For the same compound, the MIC [26] was 1.56 µg/mL (≈ 3.2 µM), the MIC (Erwinia carotovora) was greater than 100 µg/mL and the MIC [23] was 0.78 µg/mL (≈ 1.6 µM). It also gave an MIC [24] of 6.25 µg/mL (≈ 12.8 µM).
